Where two headings read alike, the source gives them in different places.
Experiments:
[1] = system: zebrafish neuromast hair cells; experiment: Zebrafish neuromast hair cell protection assay; conditions: for protective activity (in words) / EC50: 200 μM neomycin; for eudismic ratio (ER): HC50 of the less active versus the more active enantiomer
[2] = target: hERG ion channel (Homo sapiens, UniProt Q12809); experiment: cell-based
[3] = system: five strains of P. aeruginosa; experiment: Interference with aminoglycoside MIC; assay type: cell-based
[4] = system: M. tuberculosis; experiment: Interference with amikacin MIC; assay type: cell-based
[5] = system: E. coli ATCC25922; experiment: Interference with neomycin MIC/MBC; assay type: cell-based
[6] = Early / in vitro ADME profiling
[7] = Preliminary i.v. toxicity and plasma half-life in rats; assay type: in vivo, rat
[8] = system: CYP; experiment: CYP stability / inhibition
[9] = In vitro toxicity against HepG2 cell line; conditions: human
[10] = system: Sprague-Dawley rats; experiment: Rat ABR assay, kanamycin-induced hearing loss; conditions: kanamycin 500 mg/kg/day s.c. 14 days + compound 25 mg/kg/day i.p.
[11] = Aqueous solubility; assay type: physicochemical
[12] = Air oxidation stability; assay type: physicochemical; conditions: oxidation to inactive, highly fluorescent byproduct
[13] = read-out: HC50, Tables 7, 8 and text, 50% hair cell protection

Sequence of hERG ion channel (Q12809 whole entry): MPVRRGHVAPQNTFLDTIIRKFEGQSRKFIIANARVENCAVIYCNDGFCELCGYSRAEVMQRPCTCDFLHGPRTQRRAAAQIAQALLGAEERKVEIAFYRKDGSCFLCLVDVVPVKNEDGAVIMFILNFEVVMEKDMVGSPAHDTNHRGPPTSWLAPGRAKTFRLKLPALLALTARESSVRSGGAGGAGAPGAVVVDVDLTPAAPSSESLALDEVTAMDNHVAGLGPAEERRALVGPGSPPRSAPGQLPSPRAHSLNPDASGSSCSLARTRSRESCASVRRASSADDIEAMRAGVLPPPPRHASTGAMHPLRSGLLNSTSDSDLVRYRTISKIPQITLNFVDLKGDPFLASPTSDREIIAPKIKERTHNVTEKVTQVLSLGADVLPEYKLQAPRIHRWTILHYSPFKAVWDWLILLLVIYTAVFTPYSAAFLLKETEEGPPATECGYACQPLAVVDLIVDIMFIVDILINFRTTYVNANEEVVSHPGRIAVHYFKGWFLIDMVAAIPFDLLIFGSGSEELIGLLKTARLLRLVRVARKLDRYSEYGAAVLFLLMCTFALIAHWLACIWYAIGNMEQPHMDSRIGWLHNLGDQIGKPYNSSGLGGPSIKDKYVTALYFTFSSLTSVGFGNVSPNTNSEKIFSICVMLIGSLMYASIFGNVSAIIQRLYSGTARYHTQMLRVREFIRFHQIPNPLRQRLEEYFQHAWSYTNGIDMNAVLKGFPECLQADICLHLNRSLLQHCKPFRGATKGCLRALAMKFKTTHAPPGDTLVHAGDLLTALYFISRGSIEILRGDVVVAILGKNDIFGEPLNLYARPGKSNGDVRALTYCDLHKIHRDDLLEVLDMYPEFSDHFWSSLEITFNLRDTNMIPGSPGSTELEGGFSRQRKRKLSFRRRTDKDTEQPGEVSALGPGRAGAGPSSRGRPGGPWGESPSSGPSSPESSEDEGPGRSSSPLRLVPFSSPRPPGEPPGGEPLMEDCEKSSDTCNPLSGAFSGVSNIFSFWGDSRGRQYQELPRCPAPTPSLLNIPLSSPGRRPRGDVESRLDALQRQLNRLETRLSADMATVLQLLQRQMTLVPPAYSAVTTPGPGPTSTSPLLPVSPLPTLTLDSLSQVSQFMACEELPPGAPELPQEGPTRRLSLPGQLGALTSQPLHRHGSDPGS

Q: Which “protective activity (in words)” value [1] does the source give for `CC(C)(C)OC(=O)CN1CCc2c(sc(NC(=O)Nc3ccc(Cl)cc3)c2C(N)=O)C1` [compound 60] here?
A: Its value is “completely suppressed”.

Q: For `CCN1CCc2c(sc(NC(=O)Nc3ccc(Cl)cc3)c2C(=O)NC)C1.Cl` [compound 18], which “protective activity (in words)” value [1] is on record?
A: Its value is “greatly reduces the activity”.

Q: With “(+/−)-2-[3-(4-Chlorophenyl)ureido]-9-methyl-5,6,7,8-tetrahydro-4H-5,8-epiminocyclohepta[b]thiophene-3-carboxamide [compound 88]” as the compound, how does the EC50 [1, 13] read?
A: The EC50 was 0.36 µM.

Q: With `CC(C)C[N+]1(C)CCc2c(sc(NC(=O)Nc3ccc(Cl)cc3)c2C(N)=O)C1` (stereo not drawn) [compound 71] as the compound, how does the IC50 [2] read?
A: The IC50 was 9.75 µM.

Q: With `CCN1CCc2c(sc(NC(=O)NCCN3CCOCC3)c2C(N)=O)C1` [compound 13] as the compound, how does the “protective activity (in words)” value [1] read?
A: Its value is “inactive”.

Q: For `CCN1CCc2c(sc(NC(=O)[C@@H]3CCCN3)c2C(N)=O)C1` [compound 30], which “protective activity (in words)” value [1] is on record?
A: The value was “no protective activity”.

Q: With `CCN1CCc2c(sc(NC(=O)C3(c4ccc(Cl)cc4)CC3)c2C(N)=O)C1.Cl` [compound 33] as the compound, how does the “protective activity (in words)” value [1] read?
A: Its value is “no protective activity”.

Q: Which results are given for “(−)-2-[3-(4-Chlorophenyl)ureido]-9-methyl-5,6,7,8-tetrahydro-4H-5,8-epiminocyclohepta[b]thiophene-3-carboxamide [compound 89]”?
A: protective activity (in words) [1]: significantly reduced activity; EC50 [1, 13]: 2.25 µM

Q: Which “protective activity (in words)” value [1] does the source give for `CCN1CCc2c(sc(NC=O)c2C(N)=O)C1.Cl` [compound 29] here?
A: Its value is “no protective activity”.

Q: Which “protective activity (in words)” value [1] does the source give for `CCN1CCc2c(sc(NC(=O)NCC3CCCO3)c2C(N)=O)C1` (stereo not drawn) [compound 12] here?
A: The value was “inactive”.

Q: Which “protective activity (in words)” value [1] does the source give for `CCN1CCc2c(sc(NC(=O)Nc3ccccc3)c2C(N)=O)C1.Cl` [compound 14] here?
A: The value was “inactive”.

Q: For `CCN1CCc2c(sc(NC(=O)Nc3ccc(Cl)cc3)c2C(=O)c2nc(C)no2)C1.Cl` [compound 21], which “protective activity (in words)” value [1] is on record?
A: Its value is “inactive”.

Q: Which EC50 ([1]; Danio rerio, read-out: HC50, text) does the source give for `NC(=O)c1c(NC(=O)Nc2ccc(Cl)cc2)sc2c1[C@@H]1CC[C@H](C2)N1` [compound 99] here?
A: Its EC50 is 0.033 µM.

Q: Which “interference in MIC for tobramycin, amikacin, kanamycin and neomycin” value [3] does the source give for “(+)-2-[3-(4-Chlorophenyl)ureido]-9-methyl-5,6,7,8-tetrahydro-4H-5,8-epiminocyclohepta[b]thiophene-3-carboxamide [compound 90]” here?
A: The value was “no interference”.

Q: What about the “interference in amikacin MIC” value [4] of the same compound?
A: Its value is “no interference”.

Q: What about the “interference with neomycin minimal inhibitory concentration (MIC)” value [5] of the same compound?
A: Its value is “no interference”.

Q: And the EC50 [1, 13]?
A: The EC50 was 0.12 µM.

Q: Which “protective activity (in words)” value [1] does the source give for `CCN1CCc2c(sc(NC(=O)Nc3ccc(Cl)cc3)c2C(=O)O)C1.O=C(O)C(F)(F)F` [compound 16] here?
A: The value was “greatly reduces the activity”.

Q: With `NC(=O)c1c(NC(=O)Nc2ccc(Cl)cc2)sc2c1CCN(CC1CCC1)C2` [compound 54] as the compound, how does the IC50 [2] read?
A: Its IC50 is 0.73 µM.

Q: With `NC(=O)c1c(NC(=O)Nc2ccc(Cl)cc2)sc2c1CCN(CC1CC1)C2` [compound 53] as the compound, how does the IC50 [2] read?
A: Its IC50 is 2.67 µM.

Q: For `CCN1CCc2c(sc(NC(=O)C3(C(=O)Nc4ccc(Cl)cc4)CC3)c2C(N)=O)C1` [compound 31], which “protective activity (in words)” value [1] is on record?
A: Its value is “lack of potency”.

Q: With `CCN1CCc2c(sc(NC(=O)Nc3cscc3C(=O)OC)c2C(N)=O)C1` [compound 15] as the compound, how does the “protective activity (in words)” value [1] read?
A: Its value is “inactive”.

Q: For `CCN1CCc2c(sc(NC(=O)CN3CCCCC3)c2C(N)=O)C1` [compound 27], which “protective activity (in words)” value [1] is on record?
A: Its value is “no protective activity”.

Q: Which “protective activity (in words)” value [1] does the source give for `CCN1CCc2c(sc(NC(=O)c3ccccc3)c2C(N)=O)C1.Cl` [compound 32] here?
A: The value was “no protective activity”.

Q: With `C[N+]1(CC2CCCCC2)CCc2c(sc(NC(=O)Nc3ccc(Cl)cc3)c2C(N)=O)C1` (stereo not drawn) [compound 76] as the compound, how does the IC50 [2] read?
A: Its IC50 is over 30 µM.

Q: Which IC50 [2] does the source give for `CC(C)(C)OC(=O)CCCN1CCc2c(sc(NC(=O)Nc3ccc(Cl)cc3)c2C(N)=O)C1` [compound 62] here?
A: Its IC50 is 3.84 µM.

Q: With `CN1[C@@H]2CC[C@H]1c1sc(NC(=O)Nc3ccc(Cl)cc3)c(C(N)=O)c1C2.Cl` [compound 92] as the compound, how does the “protective activity (in words)” value [1] read?
A: Its value is “significantly reduced activity”.

Q: And the “eudismic ratio (ER)” value [1]?
A: The value was 26.7.

Q: With `CC(C)(C)OC(=O)N1CCc2c(sc(NC(=O)Nc3ccc(Cl)cc3)c2C(N)=O)C1` [compound 59] as the compound, how does the “protective activity (in words)” value [1] read?
A: Its value is “completely suppressed”.

Q: Which results are given for `CCN1CCc2c(sc(NC(=O)Nc3ccc(Cl)cc3)c2C(N)=O)C1.Cl` [compound 1, 2-[3-(4-Chlorophenyl)ureido]-6-ethyl-4,5,6,7-tetrahydrothieno[2,3-c]pyridine-3-carboxamide]?
A: clearance profile (in words) ([6]; early ADME characterization): acceptable; membrane permeability (in words) ([6]; early ADME characterization): adequate; plasma protein binding (in words) ([6]; early ADME characterization): reasonable; interference with neomycin minimal bactericidal concentration (MBC) [5]: no interference; interference with neomycin minimal inhibitory concentration (MIC) [5]: no interference; half-life ([7]; rat, plasma, iv, 25 mg/kg): 1.7 h; toxicity i.v. ([7]; rats, i.v., doses up to 25 mg/kg): non-toxic; CYP stability or inhibition [8]: no issues; IC50 [9]: > 300 µM; protection from kanamycin-induced hearing loss (ABR) ([10]; 8 and 16 kHz): completely prevented; protection from kanamycin-induced hearing loss (ABR) ([10]; 32 kHz): mostly resolved; aqueous solubility (in words) [11]: adequate; air oxidation [12]: gradually undergo partial air oxidation

Q: With “2-amino-4,5,6,7-tetrahydrothieno[2,3-c]pyridine-3-carboxamide [compound 28]” as the compound, how does the “protective activity (in words)” value [1] read?
A: The value was “inactive”.

Q: With `CCN1CCc2c(sc(NC(=O)Nc3ccc(Cl)cc3)c2C(=O)c2nnco2)C1.Cl` [compound 22] as the compound, how does the “protective activity (in words)” value [1] read?
A: The value was “inactive”.

Q: Which “protective activity (in words)” value [1] does the source give for `CCN1CCc2c(sc(NC(=O)Nc3ccc(Cl)cc3)c2C#N)C1.Cl` [compound 19] here?
A: Its value is “greatly reduces the activity”.

Q: With `Cl.NC(=O)c1c(NC(=O)Nc2ccc(Cl)cc2)sc2c1[C@H]1CC[C@@H](C2)N1` [compound 98] as the compound, how does the “protective activity (in words)” value [1] read?
A: The value was “significantly reduced activity”.

Q: Which “protective activity (in words)” value [1] does the source give for `CCN1CCc2c(sc(NC(=O)Nc3ccc(Cl)cc3)c2C(=O)N2CCOCC2)C1.Cl` [compound 20] here?
A: Its value is “greatly reduces the activity”.

Q: What does the source list for `Cl.NC(=O)c1c(NC(=O)Nc2ccc(Cl)cc2)sc2c1C[C@H]1CC[C@@H]2N1` [compound 95]?
A: protective activity (in words) [1]: significantly reduced activity; eudismic ratio (ER) [1]: 14.7

Q: With `CCN1CCc2c(sc(NC(=O)Nc3ccc(Cl)cc3)c2C(=O)OC)C1.Cl` [compound 17] as the compound, how does the “protective activity (in words)” value [1] read?
A: Its value is “greatly reduces the activity”.

Q: With `CCN1CCc2c(ccc(NC(=O)Nc3ccc(Cl)cc3)c2C(N)=O)C1` [compound 38] as the compound, how does the “protective activity (in words)” value [1] read?
A: The value was “no potency”.

Q: Which “protective activity (in words)” value [1] does the source give for `CCN1CCc2c(sc(NC(=O)NCc3cccc(Cl)c3)c2C(N)=O)C1.Cl` [compound 11] here?
A: The value was “inactive”.

Q: With `CC1(C)Cc2c(sc(NC(=O)Nc3ccc(Cl)cc3)c2C(N)=O)C(C)(C)N1.Cl` [compound 87] as the compound, how does the metabolic stability ([6]; in vitro ADME profiling) read?
A: The metabolic stability was “excellent”.

Q: And the “CYP stability or inhibition” value [8]?
A: Its value is “no issues”.

Q: What about the IC50 [9] of the same compound?
A: The IC50 was over 300 µM.

Q: And the air oxidation [12]?
A: The air oxidation was “resistant to the oxidation pathway”.

From publication PMC5889090 (Journal of medicinal chemistry, 2017)
